Assay results as given in patent US20230416266A1, “6,7-DIHYDRO-PYRANO[2,3-d]PYRIMIDINE INHIBITORS OF KRAS G12C MUTANT” (Merck Sharp & Dohme Corp., priority 2020, published 2023).
Read-outs that look alike come from different tables or passages of the source.

Assays:
[1] = system: phosphorylation of Erk in NCI-H358 cells; assay: Cellular phospho-ERK assay; type: cell-based; settings: 2 hour incubation, ratio of p-Erk vs total Erk, read-out: IC50 (nM) pERK (Cell)
Method: NCI-H358 cells (ATCC® CRL-5807™) were cultured in T150 flask in growth medium (RPMI medium 1640-GlutaMAX™-I (ThermoFisher Scientific 61870) containing 10% fetal bovine serum (ThermoFisher Scientific 10091148)). The cells were harvested in growth medium after TrypLE (ThermoFisher scientific 12604021) digestion and were seeded in 384-well collagen coated cell culture plate (Corning 356702) at a density of 15,000 cells/well, and incubated at 37° C., 5% CO2 overnight. The compound dose-response titrations were prepared and appropriate amounts of compounds were dispensed in a 384-well intermediate plate using an Echo 550 liquid handler. RPMI medium 1640-GluiaMAX™-I were added to the intermediate plate and transferred to 384-well cell culture plate, which was incubated at 37° C., 5% CO2 for 2 hours. After removal of medium from the plate, cells were lysed in lysis buffer from Alpha SureFire® Ultra™ Multiplex p-Erk and total Erk assay kit (PerkinElmer MPSU-PIERK) containing Halt™ Protease and Phosphotase inhibitor cocktail (ThermoFisher Scientific 78446) at room temperature with constant shaking at 300 rpm for 30 minutes. The cell lysates were then transferred to OptiPlate-384 plate (PerkinElmer 6005620) and the phosphorylation of Erk and total Erk levels were detected by Alpha SureFire Ultra Multiplex p-Erk kit (PerkinElmer MPSU-PIERK) following the manufacturer's protocol. Assay plates were read on an EnVision Multimode Plate Reader (PerkinElmer), and the ratio of p-Erk vs total Erk in each well was used as the final readout. Dose response curves were analyzed using a 4-parameter logistic model to calculate IC50 values using spotfire software.

[2] = target: T1, Biotinylated KRAS G12C protein (KRAS G12C/C51S/C80L/C118S, SEQ ID NO: 1) (Homo sapiens, UniProt P01116, C118S/C51S/C80L/G12C); assay: SOS-catalyzed nucleotide exchange assay (TR-FRET); type: biochemical; settings: in vitro apparent potency; preincubation time of 60 minutes prior to addition of SOS
T1 construct: 183 amino acids; biotin on K10
T1 sequence (P01116 with tags, fused parts or gaps isoform P01116-2 G12C/C51S/C80L/C118S): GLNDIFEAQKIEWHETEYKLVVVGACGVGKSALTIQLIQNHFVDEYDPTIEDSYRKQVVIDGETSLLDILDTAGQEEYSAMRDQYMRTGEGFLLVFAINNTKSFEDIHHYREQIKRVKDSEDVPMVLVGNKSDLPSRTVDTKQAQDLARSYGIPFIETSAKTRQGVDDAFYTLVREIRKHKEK
Method: The SOS-catalyzed nucleotide exchange assay utilizes a preformed complex of recombinant biotinylated KRAS protein containing G12C/C51S/C80L/C118S mutations (183 amino acids; biotin on K10; leader sequence which is an AviTag; referred to as SEQ ID NO: 1 or “Biotinylated KRAS G12C protein” hereafter), Bodipy-GDP, and Terbium-streptavidin. Compounds are added to this complex and then after 60 minutes, the mixture is treated with recombinant SOS protein and unlabeled GTP. Small molecule inhibitors stabilize the Bodipy-GDP complex whereas the untreated protein rapidly exchanges Bodipy-GDP for unlabeled GTP resulting in reduced TR-FRET signal.
Biotinylated KRAS G12C protein (SEQ ID NO: 1) is diluted to 2 μM in an EDTA buffer (20 mM HEPES, 150 mM sodium chloride, 10 mM EDTA, and 0.01% Tween) and incubated at room temperature for one hour. This mixture is then further diluted to 90nM in an assay buffer (20 mM HEPES, 150 mM sodium chloride, 10 mM magnesium chloride, and 0.005% Tween) containing 15 nM of Terbium-Streptavidin (Invitrogen, catalog #PV3577) and 900 nM of Bodipy-GDP and incubated at room temperature for six hours. This solution is referred to as Biotinylated KRAS G12C mixture.
Each test compound (10 mM stock in DMSO) is diluted in DMSO to make a 10-point, 3-fold dilution series in a 384-well low dead volume microplate (Labcyte, catalog #LP-0200). Once titrations are made, 10 nL of the diluted compounds is acoustically dispensed into a 384-well plate (Corning, catalog #3820) using an Echo 550 (Labcyte).
Each well of the plate receives 3 μL Biotinylated KRAS G12C mixture that had been incubating for six hours and 3 μL of assay buffer using a BioRAPTR (Beckman Coulter) and is incubated at room temperature for 60 minutes. Each well then receives 3 μL of 240 nM recombinant human SOS protein and 9 mM GTP (Sigma, G8877) in assay buffer and is incubated at room temperature for 60 minutes.
The time-resolved fluorescence resonance energy transfer signal of the plate is measured on an Envision (PerkinElmer) plate reader: Excitation filter=340 nm; emission1=495 nm; emission2=520 nm; dichroic mirror=D400/D505; delay time=100 μs. The signal of each well is determined as the ratio of the emission at 520 nm to that at 495 nm. Percent effect of each well is determined after normalization to control wells containing DMSO (no effect) or a saturating concentration of inhibitor (max effect). The apparent effect as a function of compound concentration is fit to a four parameter logistic equation.

IC50 ([1]; Homo sapiens, NCI-H358, 2 h) [nM] | IC50 [2] [nM] | IC50 [1] [nM] | Structure (SMILES)
19200 | 104 | – | C=CC(=O)N1CCN(c2nc(OC[C@@H]3CCCN3C)nc3c2CCC(c2c(Cl)c(C)cc4[nH]ncc24)O3)C[C@@H]1CC#N (single isomer, unassigned) [Compound 4a]
26200 | 817 | – | C=CC(=O)N1CCN(c2nc(OC[C@@H]3CCCN3C)nc3c2CCC(c2cccc4cc(O)ccc24)O3)C[C@@H]1CC#N (single isomer, unassigned) [Compound 8a]
– | 195 | 10300 | C=CC(=O)N1CCN(c2nc(OC[C@@H]3CCCN3C)nc3c2CCC(c2cccc4c(F)cccc24)O3)C[C@@H]1CC#N (single isomer, unassigned) [Compound 5b]
– | 13.8 | 394 | C=CC(=O)N1CCN(c2nc(OC[C@@H]3CCCN3C)nc3c2CC(F)(F)C(c2cccc4ccccc24)O3)C[C@@H]1CC#N (single isomer, unassigned) [Compound 7a]
– | 259 | 13200 | C=CC(=O)N1CCN(c2nc(OC[C@@H]3CCCN3C)nc3c2CC(C)C(c2cccc4ccccc24)O3)C[C@@H]1CC#N (single isomer, unassigned) [Compound 9a]
501 | 17.5 | – | C=CC(=O)N1CCN(c2nc(OC[C@@H]3CCCN3C)nc3c2CCC(c2cccc4cccc(C)c24)O3)C[C@@H]1CC#N (mixture of isomers) [Compound 2, 2-((2S)-1-acryloyl-4-(7-(8-methylnaphthalen-1-yl)-2-(((S)-1-methylpyrrolidin-2-yl)methoxy)-6,7-dihydro-5H-pyrano[2,3-d]pyrimidin-4-yl)piperazin-2-yl)acetonitrile]
21700 | 1410 | – | C=CC(=O)N1CCN(c2nc(C(=O)N[C@H](C)CN(C)C)nc3c2CCC(c2cccc4ccccc24)O3)C[C@@H]1CC#N (mixture of isomers) [Compound 11, 4-((S)-4-Acryloyl-3-(cyanomethyl)piperazin-1-yl)-N-((R)-1-(dimethylamino)propan-2-yl)-7-(naphthalen-1-yl)-6,7-dihydro-5H-pyrano[2,3-d]pyrimidine-2-carboxamide]
24100 | 632 | – | C=CC(=O)N1CCN(c2nc(OC[C@@H]3CCCN3C)nc3c2CCC(C)(c2cccc4ccccc24)O3)C[C@@H]1CC#N (stereo partly drawn) [Compound 6, 2-((2S)-1-acryloyl-4-(7-methyl-2-(((S)-1-methylpyrrolidin-2-yl)methoxy)-7-(naphthalen-1-yl)-6,7-dihydro-5H-pyrano[2,3-d]pyrimidin-4-yl)piperazin-2-yl)acetonitrile]
– | 11.4 | 578 | C=CC(=O)N1CCN(c2nc(OC[C@@H]3CCCN3C)nc3c2CCC(c2cccc4ccccc24)O3)C[C@@H]1CC#N (single isomer, unassigned) [Compound 1a]
– | 84.8 | 2380 | C=CC(=O)N1CCN(c2nc(OC[C@@H]3CCCN3C)nc3c2CC(F)(F)C(c2cccc4ccccc24)O3)C[C@@H]1CC#N (single isomer, unassigned) [Compound 7b]
6350 | 88.6 | – | C=CC(=O)N1CCN(c2nc(OC[C@@H]3CCCN3C)nc3c2CCC(c2cccc4c(F)cccc24)O3)C[C@@H]1CC#N (single isomer, unassigned) [Compound 5a]
18500 | 87.1 | – | C=CC(=O)N1CCN(c2nc(OC[C@@H]3CCCN3C)nc3c2CCC(c2cccc4ccc5[nH]ncc5c24)O3)C[C@@H]1CC#N (mixture of isomers) [Compound 12, 2-((2S)-4-(7-(3H-benzo[e]indazol-9-yl)-2-(((S)-1-methylpyrrolidin-2-yl)methoxy)-6,7-dihydro-5H-pyrano[2,3-d]pyrimidin-4-yl)-1-acryloylpiperazin-2-yl)acetonitrile]
– | 12.9 | 704 | C=CC(=O)N1CCN(c2nc(OC[C@@H]3CCCN3C)nc3c2CC(C)C(c2cccc4ccccc24)O3)C[C@@H]1CC#N (single isomer, unassigned) [Compound 10a]
– | 2690 | 30000 | C=CC(=O)N1CCN(c2nc(OC[C@@H]3CCCN3C)nc3c2CCC(c2c(Cl)c(C)cc4[nH]ncc24)O3)C[C@@H]1CC#N (single isomer, unassigned) [Compound 4b]
– | 395 | 9020 | C=CC(=O)N1CCN(c2nc(OC[C@@H]3CCCN3C)nc3c2CCC(c2cccc4ccccc24)O3)C[C@@H]1CC#N (single isomer, unassigned) [Compound 1b]
– | 153 | 5230 | C=CC(=O)N1CCN(c2nc(OC[C@@H]3CCCN3C)nc3c2CC(C)C(c2cccc4ccccc24)O3)C[C@@H]1CC#N (single isomer, unassigned) [Compound 10b]
15700 | 793 | – | C=CC(=O)N1CCN(c2nc(OC[C@@H]3CCCN3C)nc3c2CCC(c2c(O)cccc2F)O3)C[C@@H]1CC#N (mixture of isomers) [Compound 3, 2-((2S)-1-acryloyl-4-(7-(2-fluoro-6-hydroxyphenyl)-2-(((S)-1-methylpyrrolidin-2-yl)methoxy)-6,7-dihydro-5H-pyrano[2,3-d]pyrimidin-4-yl)piperazin-2-yl)acetonitrile]
– | 2130 | 21300 | C=CC(=O)N1CCN(c2nc(OC[C@@H]3CCCN3C)nc3c2CC(C)C(c2cccc4ccccc24)O3)C[C@@H]1CC#N (single isomer, unassigned) [Compound 9b]
